Molecules are shown by their SMILES. ≈ marks a conversion by molar mass, not a printed value. Read-outs that look alike come from different tables or passages of the source.

The test system of one series is Vero cells. The following applies: African green monkey, 72 h.
The subject of another series is NRP Mtb H37Rv cells. Nature of the series: Low-oxygen recovery assay (LORA) MIC. In kind it is cell-based, Mycobacterium tuberculosis. The following applies: for MIC: Mycobacterium tuberculosis, H37RV, read-out: LORA MIC - ITR; for LORA MIC: Tables P1, P2, non-replicating M. tuberculosis.
Series [1] has as its system Mtb H37Rv. In words: TB MIC - ITR (UIC), Institute for Tuberculosis Research. In kind it is cell-based, Mycobacterium tuberculosis. To be noted: for MIC: Mycobacterium tuberculosis, H37RV, Tables 1-4, read-out: TB MIC - ITR; for TB MIC - UIC: Tables P1, P2.
For series [2], the system named is Mtb H37Rv. Nature of the series: TB MIC - SRI, resazurin-based microplate assay. In kind it is cell-based, Mycobacterium tuberculosis. The following applies: Mycobacterium tuberculosis, H37RV.
[3] abbreviates: Tables P1-P3, read-out: TB MIC - SRI.
Setting [4] is: Tables 1-4 and text, read-out: TB MIC - SRI.

`CC1CCCCN1c1n[n+]([O-])c2cc3c(cc2[n+]1[O-])CCC3` (stereo not shown) [Compound 20w, 3-(2-methylpiperidin-1-yl)-7,8-dihydro-6H-indeno[5,6-e][1,2,4]triazine 1,4-dioxide]: the “Vero Tox CC50” value in the series with Vero cells was above 50 µg/mL. The MIC with NRP Mtb H37Rv cells (NRP Mtb, Tables 1-4 and text) came to 0.47 µg/mL (≈ 1.56 µM); in the series on Mtb H37Rv [1] it was 0.66 µg/mL (≈ 2.2 µM); in the series with Mtb H37Rv [2] (Table 5, read-out: MIC, H37Rv) it was 1.2 µg/mL (≈ 4 µM).

For `[O-][n+]1nc(NC2CCCCCC2)[n+]([O-])c2ccc(F)cc21` [SRI-012282], in the series with Vero cells, the “VERO Tox-SRI” value is on record as below 2.5. The same molecule yielded an LORA MIC with NRP Mtb H37Rv cells of 0.21 µg/mL. Further, the TB MIC - UIC with Mtb H37Rv [1] came to 0.39 µg/mL. Further, the MIC with Mtb H37Rv [2] (setting [3]) amounted to 0.625 µg/mL (≈ 2.14 µM).

Consider `CCC(CC)Nc1n[n+]([O-])c2cc(F)ccc2[n+]1[O-]` [SRI-012279], for which the “VERO Tox-SRI” value with Vero cells came to 4.4. Also, the LORA MIC in the series on NRP Mtb H37Rv cells was 0.71 µg/mL. In the series with Mtb H37Rv [1], the TB MIC - UIC is 0.49 µg/mL. The MIC in the series on Mtb H37Rv [2] (setting [3]) came out at 1.25 µg/mL (≈ 4.69 µM).

On to `CN(C)c1n[n+]([O-])c2cc3c(cc2[n+]1[O-])CCC3` [Compound 20s, 3-(dimethylamino)-7,8-dihydro-6H-indeno[5,6-e][1,2,4]triazine 1,4-dioxide], for which the “Vero Tox CC50” value with Vero cells was determined as 24 µg/mL. Further, the MIC in the series with NRP Mtb H37Rv cells came out at 1.5 µg/mL (≈ 6.09 µM); in the series with Mtb H37Rv [1], 0.3 µg/mL (≈ 1.22 µM); in the series on Mtb H37Rv [2] (Table 5, read-out: MIC, H37Rv), 0.62 µg/mL (≈ 2.52 µM).

With `CC(C)CC(C)Nc1n[n+]([O-])c2cc(F)ccc2[n+]1[O-]` (stereo not shown) [SRI-012281], in the series with Vero cells, the “VERO Tox-SRI” value is below 2.5. Further, the LORA MIC with NRP Mtb H37Rv cells amounted to 0.4 µg/mL. In the series on Mtb H37Rv [1], this molecule registered a TB MIC - UIC of 0.55 µg/mL. Besides, the MIC with Mtb H37Rv [2] (setting [3]) turned out to be 1.25 µg/mL (≈ 4.46 µM).

In the case of `CO[C@H]1/C=C/O[C@@]2(C)Oc3c(C)c(O)c4c(O)c(c(/C=N/N5CCN(C)CC5)c(O)c4c3C2=O)NC(=O)/C(C)=C\C=C\[C@H](C)[C@H](O)[C@@H](C)[C@@H](O)[C@@H](C)[C@H](OC(C)=O)[C@@H]1C` [RIF, Rifampin, reference compound], in the series with Vero cells, the “Vero Tox CC50” value was above 50 µg/mL. The MIC in the series on NRP Mtb H37Rv cells (NRP Mtb, Tables 1-4 and text) was determined as 2 µg/mL (≈ 2.43 µM); in the series with Mtb H37Rv [1], 0.041 µg/mL (≈ 0.0498 µM); in the series with Mtb H37Rv [2] (setting [4]), 0.003 µg/mL (≈ 0.00365 µM).

For `[O-][n+]1nc(NC2CCCC2)[n+]([O-])c2ccccc21` [Compound 8e, 3-(cyclopentylamino)benzo[e][1,2,4]triazine 1,4-dioxide], in the series with Vero cells, the “Vero Tox CC50” value was 10 µg/mL. Further, the MIC came to 0.68 µg/mL (≈ 2.76 µM) in the series on NRP Mtb H37Rv cells (NRP Mtb, Tables 1-4 and text); 3.6 µg/mL (≈ 14.6 µM) in the series with Mtb H37Rv [1]; 2.5 µg/mL (≈ 10.2 µM) in the series on Mtb H37Rv [2] (setting [4]).

For `CCCC(C)Nc1n[n+]([O-])c2ccccc2[n+]1[O-]` (stereo not shown) [Compound 8h, 3-(pentan-2-ylamino)benzo[e][1,2,4]triazine 1,4-dioxide], the “Vero Tox CC50” value with Vero cells is 26 µg/mL. Further, the MIC in the series on NRP Mtb H37Rv cells (NRP Mtb, Tables 1-4 and text) stood at 0.99 µg/mL (≈ 3.99 µM); in the series with Mtb H37Rv [1], 1.9 µg/mL (≈ 7.65 µM); with Mtb H37Rv [2] (setting [4]), 5 µg/mL (≈ 20.1 µM).

Regarding `[O-][n+]1nc(NC2CC2)[n+]([O-])c2ccc(Cl)cc21` [Compound 15bb, 7-chloro-3-(cyclopropylamino)benzo[e][1,2,4]triazine 1,4-dioxide], the “Vero Tox CC50” value in the series with Vero cells was found to be 1.3 µg/mL. Further, the MIC was 0.22 µg/mL (≈ 0.871 µM) in the series on NRP Mtb H37Rv cells (NRP Mtb, Tables 1-4 and text); 0.21 µg/mL (≈ 0.831 µM) with Mtb H37Rv [1]; 0.62 µg/mL (≈ 2.45 µM) in the series with Mtb H37Rv [2] (setting [4]).

On to `CCNc1n[n+]([O-])c2cc3c(cc2[n+]1[O-])CCC3` [SRI-012286], for which the “VERO Tox-SRI” value with Vero cells was 36.0. Moreover, the LORA MIC in the series with NRP Mtb H37Rv cells is 0.83 µg/mL. The molecule also gave a TB MIC - UIC in the series with Mtb H37Rv [1] of 0.95 µg/mL. In addition, the MIC in the series on Mtb H37Rv [2] (read-out: Activity against H37Rv, Table P4) came out at 1.25 µg/mL (≈ 5.08 µM); with Mtb H37Rv [2] (read-out: TB MIC - SRI, Tables P1-P3), 1.25 µg/mL (≈ 5.08 µM).

As to `CCNc1n[n+]([O-])c2cc(F)ccc2[n+]1[O-]` [SRI-012284], the “VERO Tox-SRI” value with Vero cells came to 4.6. The molecule further had an LORA MIC with NRP Mtb H37Rv cells of 0.75 µg/mL. Also, in the series with Mtb H37Rv [1], the TB MIC - UIC amounted to 0.35 µg/mL. Moreover, in the series with Mtb H37Rv [2] (setting [3]), the MIC turned out to be 0.625 µg/mL (≈ 2.79 µM).

`COc1cc2c(cc1C)[n+]([O-])nc(N[C@@H]1C[C@H]3CC[C@@H]1C3)[n+]2[O-]` [Compound 15gm, 3-((1R,2R,4S)-bicyclo[2.2.1]heptan-2-ylamino)-6-methoxy-7-methylbenzo[e][1,2,4]triazine 1,4-dioxide]: the “Vero Tox CC50” value in the series on Vero cells was above 50 µg/mL. Moreover, the MIC with NRP Mtb H37Rv cells (NRP Mtb, Tables 1-4 and text) is 3.5 µg/mL (≈ 11.1 µM); in the series with Mtb H37Rv [1] it was 5.6 µg/mL (≈ 17.7 µM); in the series with Mtb H37Rv [2] (setting [4]), 5 µg/mL (≈ 15.8 µM).

(Values after patent US9663478B2, “Benzotriazine oxides as drugs targeting Mycobacterium tuberculosis” (priority 2011, dated 2017).)
